# Earlier results as cited in paper PMC3667888 (Channels, 2013).
# Test system: Kv1 channels
# Settings: applied externally; cited from earlier work
smiles,measurement,value
"CCCCC/C=C\C/C=C\C/C=C\C/C=C\CCCC(=O)NCCO [AEA, anandamide]",inhibition of Kv1 channels by anandamide,not inhibited
